Assay: gradient 5% acetonitrile 3 min, to 50% in 2 min, to 85% in 15 min, held 3 min, 100 µL/min
Settings: column: Zorbax Extend-C18 2.1 x 50 mm; eluents: water / acetonitrile, 0.1% formic acid
Outline: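 Over 3 months, pure standards in mixtures of ~100 molecules were run by HPLC coupled to a quadrupole time-of-flight mass spectrometer in positive and negative ionization mode. The column was a Zorbax Extend-C18 (2.1 × 50 mm, 1.8 μm) at 100 μL/min, eluted with water and acetonitrile each holding 0.1% formic acid, with 40 μL dead and 900 μL dwell volumes. Retention time was determined from adduct peaks chosen by software and checked manually.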

RP-LC retention time | SMILES
766 s | O=C(CSc1nnc2c3sc(N4CCCC4)nc3ncn12)Nc1ccc2c(c1)OCO2
627 s | CCCc1cc(N2CCN(C(=O)Cc3ccsc3)CC2)nc2nnc(C)n12
691 s | CCC(C(=O)NCCCN1CCCCC1)n1nc(C)c2sc3ccccc3c2c1=O (centres undefined)
552 s | CCN1CCN(CCCNC(=O)C2CCCN(c3nc4cccnc4s3)C2)CC1 (centres undefined)
879 s | COc1ccc2nc(C(=O)NCc3ccc(Br)cc3)cn2n1
898 s | Cc1cc(C)c(NC(=O)/C=C/c2ccccc2)c(C)c1
581 s | O=C(c1ccc(Cl)cc1)N(CCS(=O)(=O)N1CCNCC1)CC1CCCO1 (centres undefined)
723 s | Cc1cc(C)c(NC(=O)Cn2cnc3nc(N4CCCC(C(=O)NC5CC5)C4)sc3c2=O)c(C)c1 (centres undefined)
691 s | CCN1CCC(N(Cc2ccc3c(c2)OCO3)C(=O)Nc2cccc(C)c2)CC1
572 s | Cc1cc(N2CCN(C)CC2)n2nc(CN3CCN(c4ccc(Cl)cc4)CC3)nc2n1
750 s | COC(=O)c1c(C)[nH]c(C(=O)N2CCC(CC(=O)NCCc3c[nH]c4ccc(C)cc34)CC2)c1C
665 s | CNC(=O)C1CCCN(C(=O)Nc2ccc(NC(=O)Nc3ccc(F)cc3)cc2)C1 (centres undefined)
792 s | O=C1CCCc2cc(S(=O)(=O)N3CCCC(C(=O)N4CCc5ccccc5C4)C3)ccc2N1 (centres undefined)
720 s | CCc1ccc2c(c1)-c1ccccc1S(=O)(=O)N2CC(=O)NCc1ccccn1
853 s | O=C(Cc1ccsc1)NCCC1CCN(C(=O)Nc2cc(F)cc(F)c2)CC1
958 s | Cn1cc2c3c(cccc31)CN(C(=O)c1ccc(F)cc1Cl)CC2
751 s | COC(=O)c1ccc(NC(=O)C(=O)NCC2CCN(C(=O)c3ccccc3F)CC2)cc1
1140 s | CCC(c1cccs1)N1C(=O)[C@H]2CN(S(=O)(=O)c3ccc(C(C)C)cc3)C[C@H]2C1=O (some centres undefined)
611 s | O=C(CN1CCN(C(=O)c2cnn3c(-c4ccc5c(c4)OCO5)ccnc23)CC1)N1CCCCC1
844 s | Cn1cc(-c2cc3n(n2)CCC(=O)N3CCCC(=O)Nc2ccccc2F)c2ccccc21
734 s | O=C(N[C@H]1C[C@@H]2C[C@H]1CN2C(=O)NCCc1ccccc1)c1ccccc1
897 s | CCOc1ccc2nc(C(=O)NC(CC)c3ccc(OC)cc3)cn2n1 (centres undefined)

RP-LC retention time | SMILES
634 s | O=C(CCc1nnn2c1CN(C(=O)NC1CCCCC1)CC2)N1CCOCC1
988 s | COc1ccc(-c2noc(Cc3nnc(-c4cccc(Br)c4)o3)n2)cc1OC
687 s | COc1ccc(CCC(=O)NCC2CCN(C(=O)NC(C)(C)C)CC2)cc1
783 s | Cc1noc(-c2nn(C)c3c2CN(C(=O)c2cccc(Br)c2)CC3)n1
662 s | COCc1nc(C2CCN(C(=O)Nc3ccc4c(c3)OCCO4)C2)no1 (centres undefined)
874 s | Cc1ccc(F)c(NC(=O)c2sc(-c3cn(C)c4ncccc34)nc2C)c1
735 s | Cc1cc(F)ccc1NS(=O)(=O)c1c[nH]c2ncccc12
591 s | COc1cccc(CNC(=O)COc2ccc(NC(=O)C3CC3)cn2)c1OC
1130 s | Cc1cc(S(=O)(=O)N2CCc3nc(-c4ccc(F)cc4)ncc3C2)ccc1F
590 s | Cc1noc(C)c1CCC(=O)N1CCCn2ccnc2C1C(C)C (centres undefined)
638 s | Cc1cc(C(=O)Nc2cccc(-c3ccc(N4CCOCC4)nn3)c2)c(C)o1
928 s | Cn1cccc1C(=O)C(=O)Nc1cccc2c1CCCC2
918 s | Cc1nc(-c2ccncc2)nc2c1CCC(=O)N2CC1CCCCC1
588 s | CCn1c(CN2CCN(S(C)(=O)=O)CC2)nc2cc(NC(C)=O)ccc21
960 s | Cc1ccc(NC(=O)C2CCCN(c3ccc(=O)n(-c4cccc(Cl)c4)n3)C2)cc1C (centres undefined)
803 s | Cc1csc(-c2cc(S(=O)(=O)N3CCCC3)cn2CC(=O)N2CCCC2)n1
1090 s | COc1cc2c(cc1Cc1cccc(Cl)c1F)c(=O)c(C(=O)O)cn2[C@H](CO)C(C)C
691 s | CC(C)c1cnc2c(c1SCc1cccnc1)c(=O)n(C)c(=O)n2C
595 s | CCOC(=O)C1CCN(C(=O)c2nc(N3CCCCC3)c3c(C)cc(C)nc3n2)CC1
1050 s | Cc1cc2nc(C(=O)Nc3cc(F)cc(F)c3)cc(C)n2n1
760 s | Cc1ccc(Cn2c(=O)n(CCNC(=O)c3ccco3)c3ncccc32)cc1
684 s | COCCN1C(=O)Cc2ccccc2C1C(=O)NCc1ccccc1 (centres undefined)

RP-LC retention time | SMILES
611 s | CCCCN(C)C(=O)C1CCN(c2cncnc2N(C)C)CC1
586 s | CCn1c(CCNC(=O)c2cccc(N(C)C)c2)nc2cccnc21
749 s | Cc1ccccc1C(=O)N1CCC2(CC1)NC(=O)c1cc(F)ccc1N2C
987 s | Fc1cc(F)cc(-c2nnc(Cc3nc(-c4ccc5c(c4)OCO5)no3)o2)c1
838 s | Cc1nnc(-c2cn(CC(=O)NCc3cccc(Br)c3)c3ccccc23)o1
942 s | Cc1nc(-c2ccc(OC3CCN(C(=O)c4nn(C)c5ccccc45)C3)cc2)no1 (centres undefined)
611 s | CCCCN(CC)CCCNC(=O)C1CCCN(c2ncnc3c2nc2n3CCCCC2)C1 (centres undefined)
1190 s | Cc1ccc(-c2csc(-n3nc(C)c(CC(=O)Nc4c(C)cccc4C)c3C)n2)cc1
823 s | CCOc1ccccc1NC(=O)c1ccccc1[N+](=O)[O-]
884 s | Cc1cc(C)c(NC(=O)C23CCC(C)(C(=O)O2)C3(C)C)c([N+](=O)[O-])c1 (centres undefined)
599 s | CCn1c(CCNC(=O)c2ccc3c(c2)OCO3)nc2cccnc21
809 s | COCCOC1CCN(S(=O)(=O)Cc2ccccc2F)CC1
569 s | CC(C)C(=O)N1CCN(c2nc(CN3CCOCC3)cs2)CC1
799 s | CCNC(=O)C1CCN(c2nc3ccc(-c4ccsc4)nc3s2)CC1
712 s | COc1cccc(CNC(=O)N2CCC(n3c(-c4ccco4)nc4cccnc43)C2)c1 (centres undefined)
1080 s | CCc1ccc(C(=O)Nc2nnc(SCc3nnc(-c4ccccc4C)o3)s2)cc1
641 s | O=C(c1ccc(Cl)c(N2C(=O)CCS2(=O)=O)c1)N1CCN(c2ncccn2)CC1
914 s | COC(=O)C1=CN(c2cc(Cl)c(OC)cc2OC)c2ccc(F)cc2S1(=O)=O
969 s | Cc1cc(C(=O)CSc2nnnn2-c2ccccc2)c(C)n1Cc1ccco1
743 s | Cc1cccc(-n2cc(C(=O)OCc3ccncc3)c3ccccc3c2=O)c1
850 s | Cc1ccc(S(=O)(=O)N(C)CC2CCOCC2)cc1F
606 s | COCC(C)(O)CNC(=O)c1ccc2nsnc2c1 (centres undefined)

RP-LC retention time | SMILES
855 s | O=C(Nc1ccc(F)c(Cl)c1)C1CCc2nc(N3CCOCC3)ncc2C1 (centres undefined)
824 s | Cc1noc(-c2ccc(NC(=O)c3cccnc3)cc2)n1
741 s | Cc1ccc(Nc2c(-c3ccccc3)nc3cc(C)ccn23)cc1
706 s | COc1ccc(Nc2nc(N3CCN(C)CC3)nc3c2C(=O)CC(C)(C)C3)cc1
778 s | CN(C)C(=O)c1ccc2c(c1)N(CC(=O)N1CCN(c3ccccc3)CC1)C(=O)C1CCCCN21 (centres undefined)
877 s | CCc1ccc(NC(=O)N2CCC(n3cnc4cc(Cl)ccc4c3=O)CC2)cc1
858 s | Cc1ccc(S(=O)(=O)c2cnc(N3CCC4(CC3)OCCO4)nc2N)cc1
786 s | CCCn1cc(CCNS(=O)(=O)c2ccccc2)c2cccnc21
786 s | O=C(c1cccs1)N1CCCC(OCc2nc(C3CC3)no2)C1 (centres undefined)
877 s | COc1cccc(OCC(=O)Nc2ccc3c(c2)N(C(=O)c2ccco2)CCC3)c1
1030 s | Cc1cc(-c2nnc(-c3ccccc3)o2)c(C)n1CC(=O)Nc1cccc(Cl)c1
573 s | Cc1ccc2c(Nc3cccc(C(F)(F)F)c3)c(C(=O)N3CCOCC3)cnc2n1
604 s | Cc1[nH]c(C(=O)N2CCC(CC(=O)NCCN3CCCCC3)CC2)c(C)c1C
1050 s | Cc1ccc(-c2nc(Cn3cccc3C(=O)NC3CCCC3)no2)cc1
628 s | O=C(Cn1c(-c2cccnc2)nc2ccccc21)Nc1nccs1
921 s | COC(=O)c1cccc(NC(=O)Nc2ccc3c(c2)N(C(=O)c2ccccc2)CC3)c1
707 s | COc1ccc(OC)c(S(=O)(=O)NC2CCc3nn(CC4CC4)c(=O)n3CC2)c1 (centres undefined)
973 s | O=C(c1nnn(-c2ccccc2Cl)c1-c1ccncc1)N1CCN(c2ccccn2)CC1
685 s | O=C(c1nc(Nc2ccc(F)cc2)c2ccccc2n1)N1CCOCC1
778 s | Cc1cc(NC(=O)Cn2nc3c4sc(N(C)C)nc4ncn3c2=O)ccc1Br

SMILES | RP-LC retention time
CN1C2CC(OC(=O)[C@H](CO)c3ccccc3)CC1C1OC12 (some centres undefined) | 581 s
Cc1ccc(C(=O)N2[C@H]3CC[C@@H]2c2cnc(C)nc2C3)cn1 | 562 s
CC(C)CN1Cc2ccccc2-n2ccnc2C12CCN(C(=O)c1ccco1)CC2 | 654 s

Reference: the METLIN SMRT retention time set (Domingo-Almenara et al. 2019)
